What was measured:
Experiment in all cases: relative viability (nuclei count vs DMSO), 5 days (fraction); higher = more cells survive
[1] = compound: C1=CC(=CC=C1C2=CC(=C(S2)NC(=O)N)C(=O)N)F [TPCA-1] + O=C(CCCCCCC(=O)Nc1ccccc1)NO [Vorinostat] (partner 1 µM)
Procedure, shortened: (§1)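 Relative viability was taken as the ratio of nuclei in treated wells to nuclei in vehicle wells. Lung cancer cell lines in 1536-well plates received compounds by pin tool one day after seeding, either one drug alone or a fixed anchor-drug dose plus five library-drug doses (not always all listed) in √10 steps. Nuclei were counted on 4× images after 5 days of treatment, and values are medians of duplicate plates.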

[2] = compound: C1/C(=C\C2=CC=CS2)/C(=O)/C(=C/C3=CC=CS3)/C1 + Cc1nc(NC(=O)N2CCC[C@H]2C(N)=O)sc1-c1ccnc(C(C)(C)C(F)(F)F)c1 [Alpelisib] (partner 2 µM)
Procedure, shortened: as §1

[3] = compound: C1=CC(=CC=C1C2=CC(=C(S2)NC(=O)N)C(=O)N)F [TPCA-1] + CC(=O)Nc1cccc(-n2c(=O)n(C3CC3)c(=O)c3c(Nc4ccc(I)cc4F)n(C)c(=O)c(C)c32)c1 [Trametinib] (partner 0.02 µM)
Procedure, shortened: as §1

[4] = compound: C[C@]12O[C@H](C[C@]1(O)CO)n1c3ccccc3c3c4c(c5c6ccccc6n2c5c31)CNC4=O [Lestaurtinib] + Cc1nc(Nc2ncc(C(=O)Nc3c(C)cccc3Cl)s2)cc(N2CCN(CCO)CC2)n1 [Dasatinib] (partner 0.075 µM)
Procedure, shortened: as §1

## NCI-H2405
[1]; first compound 0.04 µM
  relative viability: 1.12
[1]; first compound 0.1265 µM
  relative viability: 0.983
[1]; first compound 0.4 µM
  relative viability: 1.15
[1]; first compound 1.265 µM
  relative viability: 0.975
[1]; first compound 4 µM
  relative viability: 0.103
[2]; first compound 0.2 µM
  relative viability: 0.945
[2]; first compound 0.6325 µM
  relative viability: 0.766
[2]; first compound 2 µM
  relative viability: 0.79
[2]; first compound 6.325 µM
  relative viability: 0.797
[2]; first compound 20 µM
  relative viability: 0.87
[3]; first compound 0.04 µM
  relative viability: 0.662
[3]; first compound 0.1265 µM
  relative viability: 0.606
[3]; first compound 0.4 µM
  relative viability: 0.722
[3]; first compound 1.265 µM
  relative viability: 0.469
[3]; first compound 4 µM
  relative viability: 0.638
[4]; first compound 0.005 µM
  relative viability: 0.199
[4]; first compound 0.01581 µM
  relative viability: 0.211
[4]; first compound 0.05 µM
  relative viability: 0.186
[4]; first compound 0.1581 µM
  relative viability: 0.196
[4]; first compound 0.5 µM
  relative viability: 0.17

## LCLC-103H
[1]; first compound 0.04 µM
  relative viability: 0.839
[1]; first compound 0.1265 µM
  relative viability: 0.764
[1]; first compound 0.4 µM
  relative viability: 0.818
[1]; first compound 1.265 µM
  relative viability: 0.525
[1]; first compound 4 µM
  relative viability: 0.363
[2]; first compound 0.2 µM
  relative viability: 1.05
[2]; first compound 0.6325 µM
  relative viability: 0.926
[2]; first compound 2 µM
  relative viability: 1.02
[2]; first compound 6.325 µM
  relative viability: 0.73
[2]; first compound 20 µM
  relative viability: 0.956
[3]; first compound 0.04 µM
  relative viability: 0.689
[3]; first compound 0.1265 µM
  relative viability: 0.671
[3]; first compound 0.4 µM
  relative viability: 0.689
[3]; first compound 1.265 µM
  relative viability: 0.725
[3]; first compound 4 µM
  relative viability: 0.684
[4]; first compound 0.005 µM
  relative viability: 0.474
[4]; first compound 0.01581 µM
  relative viability: 0.464
[4]; first compound 0.05 µM
  relative viability: 0.405
[4]; first compound 0.1581 µM
  relative viability: 0.325
[4]; first compound 0.5 µM
  relative viability: 0.224

## NCI-H460
[1]; first compound 0.04 µM
  relative viability: 0.878
[1]; first compound 0.1265 µM
  relative viability: 0.686
[1]; first compound 1.265 µM
  relative viability: 0.682
[1]; first compound 4 µM
  relative viability: 0.563
[2]; first compound 0.2 µM
  relative viability: 0.491
[2]; first compound 0.6325 µM
  relative viability: 0.576
[2]; first compound 2 µM
  relative viability: 0.601
[2]; first compound 20 µM
  relative viability: 0.463
[3]; first compound 0.04 µM
  relative viability: 0.172
[3]; first compound 0.1265 µM
  relative viability: 0.161
[3]; first compound 1.265 µM
  relative viability: 0.145
[3]; first compound 4 µM
  relative viability: 0.154
[4]; first compound 0.005 µM
  relative viability: 0.505
[4]; first compound 0.01581 µM
  relative viability: 0.583
[4]; first compound 0.05 µM
  relative viability: 0.505
[4]; first compound 0.1581 µM
  relative viability: 0.388
[4]; first compound 0.5 µM
  relative viability: 0.247

## NCI-H1755
[1]; first compound 0.04 µM
  relative viability: 0.717
[1]; first compound 0.1265 µM
  relative viability: 0.84
[1]; first compound 0.4 µM
  relative viability: 0.813
[1]; first compound 1.265 µM
  relative viability: 0.667
[1]; first compound 4 µM
  relative viability: 0.554
[2]; first compound 0.2 µM
  relative viability: 0.951
[2]; first compound 0.6325 µM
  relative viability: 0.963
[2]; first compound 2 µM
  relative viability: 1
[2]; first compound 6.325 µM
  relative viability: 0.796
[2]; first compound 20 µM
  relative viability: 0.929
[3]; first compound 0.04 µM
  relative viability: 0.846
[3]; first compound 0.1265 µM
  relative viability: 0.716
[3]; first compound 0.4 µM
  relative viability: 0.72
[3]; first compound 1.265 µM
  relative viability: 0.714
[3]; first compound 4 µM
  relative viability: 0.591
[4]; first compound 0.005 µM
  relative viability: 0.439
[4]; first compound 0.01581 µM
  relative viability: 0.424
[4]; first compound 0.05 µM
  relative viability: 0.293
[4]; first compound 0.1581 µM
  relative viability: 0.288
[4]; first compound 0.5 µM
  relative viability: 0.208

## NCI-H358
[1]; first compound 0.04 µM
  relative viability: 0.695
[1]; first compound 0.1265 µM
  relative viability: 0.576
[1]; first compound 0.4 µM
  relative viability: 0.634
[1]; first compound 1.265 µM
  relative viability: 0.409
[1]; first compound 4 µM
  relative viability: 0.168
[2]; first compound 0.2 µM
  relative viability: 1.11
[2]; first compound 0.6325 µM
  relative viability: 0.799
[2]; first compound 2 µM
  relative viability: 0.861
[2]; first compound 6.325 µM
  relative viability: 0.668
[2]; first compound 20 µM
  relative viability: 0.88
[3]; first compound 0.04 µM
  relative viability: 0.167
[3]; first compound 0.1265 µM
  relative viability: 0.165
[3]; first compound 0.4 µM
  relative viability: 0.157
[3]; first compound 1.265 µM
  relative viability: 0.158
[3]; first compound 4 µM
  relative viability: 0.0935
[4]; first compound 0.005 µM
  relative viability: 0.15
[4]; first compound 0.01581 µM
  relative viability: 0.129
[4]; first compound 0.05 µM
  relative viability: 0.162
[4]; first compound 0.1581 µM
  relative viability: 0.105
[4]; first compound 0.5 µM
  relative viability: 0.115

## NCI-H1734
[1]; first compound 0.04 µM
  relative viability: 0.957
[1]; first compound 0.1265 µM
  relative viability: 0.737
[1]; first compound 0.4 µM
  relative viability: 0.88
[1]; first compound 1.265 µM
  relative viability: 0.839
[1]; first compound 4 µM
  relative viability: 0.279
[2]; first compound 0.2 µM
  relative viability: 0.725
[2]; first compound 0.6325 µM
  relative viability: 0.666
[2]; first compound 2 µM
  relative viability: 0.713
[2]; first compound 6.325 µM
  relative viability: 0.588
[2]; first compound 20 µM
  relative viability: 0.682
[3]; first compound 0.04 µM
  relative viability: 0.754
[3]; first compound 0.1265 µM
  relative viability: 0.598
[3]; first compound 0.4 µM
  relative viability: 0.7
[3]; first compound 1.265 µM
  relative viability: 0.644
[3]; first compound 4 µM
  relative viability: 0.628
[4]; first compound 0.005 µM
  relative viability: 0.48
[4]; first compound 0.01581 µM
  relative viability: 0.518
[4]; first compound 0.05 µM
  relative viability: 0.42
[4]; first compound 0.1581 µM
  relative viability: 0.263
[4]; first compound 0.5 µM
  relative viability: 0.143

## EPLC-272H
[1]; first compound 0.04 µM
  relative viability: 0.53
[1]; first compound 0.1265 µM
  relative viability: 0.403
[1]; first compound 0.4 µM
  relative viability: 0.523
[1]; first compound 1.265 µM
  relative viability: 0.256
[1]; first compound 4 µM
  relative viability: 0.258
[2]; first compound 0.2 µM
  relative viability: 1.1
[2]; first compound 0.6325 µM
  relative viability: 0.881
[2]; first compound 2 µM
  relative viability: 1.05
[2]; first compound 6.325 µM
  relative viability: 0.831
[2]; first compound 20 µM
  relative viability: 0.841
[3]; first compound 0.04 µM
  relative viability: 0.324
[3]; first compound 0.1265 µM
  relative viability: 0.22
[3]; first compound 0.4 µM
  relative viability: 0.329
[3]; first compound 1.265 µM
  relative viability: 0.332
[3]; first compound 4 µM
  relative viability: 0.265
[4]; first compound 0.005 µM
  relative viability: 0.282
[4]; first compound 0.01581 µM
  relative viability: 0.301
[4]; first compound 0.05 µM
  relative viability: 0.169
[4]; first compound 0.1581 µM
  relative viability: 0.187
[4]; first compound 0.5 µM
  relative viability: 0.125

## NCI-H2126
[1]; first compound 0.04 µM
  relative viability: 0.843
[1]; first compound 0.1265 µM
  relative viability: 0.695
[1]; first compound 0.4 µM
  relative viability: 0.891
[1]; first compound 1.265 µM
  relative viability: 0.559
[1]; first compound 4 µM
  relative viability: 0.238
[2]; first compound 0.2 µM
  relative viability: 0.785
[2]; first compound 0.6325 µM
  relative viability: 0.833
[2]; first compound 2 µM
  relative viability: 0.805
[2]; first compound 6.325 µM
  relative viability: 0.69
[2]; first compound 20 µM
  relative viability: 0.786
[3]; first compound 0.04 µM
  relative viability: 0.534
[3]; first compound 0.1265 µM
  relative viability: 0.528
[3]; first compound 0.4 µM
  relative viability: 0.58
[3]; first compound 1.265 µM
  relative viability: 0.538
[3]; first compound 4 µM
  relative viability: 0.555
[4]; first compound 0.005 µM
  relative viability: 0.678
[4]; first compound 0.01581 µM
  relative viability: 0.759
[4]; first compound 0.05 µM
  relative viability: 0.59
[4]; first compound 0.1581 µM
  relative viability: 0.624
[4]; first compound 0.5 µM
  relative viability: 0.463

From the supplement of paper PMC10307832
